Laboratory results taken from PubChem BioAssay AID330 (DTP/NCI, 2004).
Inconclusive results and toxic doses are left out.

Tested on: P388 leukemia ip, CD2F1 mice, survival T/C
Test: NCI In Vivo Anticancer Drug Screen. Data for tumor model P388 Leukemia (intraperitoneal) in CD2F1 (CDF1) mice
Conditions: endpoint: median survival time, higher = longer survival
Procedure, shortened: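 Mice carrying the transplanted tumor received test compound or vehicle. Survival was recorded in each group, and the value is the treated-group measurement divided by that of the vehicle-treated control group.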

[1] = dose: 50.0 mg/kg/injection, schedule: Q01DX009 (ip), vehicle: Klucel (hydroxypropylcellulose) (HPC)
[2] = dose: 100.0 mg/kg/injection, schedule: Q01DX009 (ip), vehicle: Klucel (hydroxypropylcellulose) (HPC)
[3] = dose: 200.0 mg/kg/injection, schedule: Q01DX009 (ip), vehicle: Klucel (hydroxypropylcellulose) (HPC)
[4] = dose: 50.0 mg/kg/injection, schedule: Q01DX005 (ip), vehicle: Klucel (hydroxypropylcellulose) (HPC)
[5] = dose: 100.0 mg/kg/injection, schedule: Q01DX005 (ip), vehicle: Klucel (hydroxypropylcellulose) (HPC)
[6] = dose: 200.0 mg/kg/injection, schedule: Q01DX005 (ip), vehicle: Klucel (hydroxypropylcellulose) (HPC)
[7] = dose: 50.0 mg/kg/injection, schedule: Q01DX005 (ip), vehicle: saline with Tween-80
[8] = dose: 100.0 mg/kg/injection, schedule: Q01DX005 (ip), vehicle: saline with Tween-80
[9] = dose: 200.0 mg/kg/injection, schedule: Q01DX005 (ip), vehicle: saline with Tween-80
[10] = dose: 50.0 mg/kg/injection, schedule: Q01DX005 (ip), vehicle: saline
[11] = dose: 100.0 mg/kg/injection, schedule: Q01DX005 (ip), vehicle: saline
[12] = dose: 200.0 mg/kg/injection, schedule: Q01DX005 (ip), vehicle: saline
[13] = dose: 100.0 mg/kg/injection, schedule: Q04DX003 (ip), vehicle: saline with Tween-80
[14] = dose: 200.0 mg/kg/injection, schedule: Q04DX003 (ip), vehicle: saline with Tween-80
[15] = dose: 400.0 mg/kg/injection, schedule: Q04DX003 (ip), vehicle: saline with Tween-80

With `CCCCC[P+](c1ccccc1)(c1ccccc1)c1ccccc1` the T/C (dose: 1.56 mg/kg/injection, schedule: Q01DX009 (ip), vehicle: Klucel (hydroxypropylcellulose) (HPC)) was 105 % of control, the T/C (dose: 3.12 mg/kg/injection, schedule: Q01DX009 (ip), vehicle: Klucel (hydroxypropylcellulose) (HPC)) was 111 % of control and the T/C (dose: 3.13 mg/kg/injection, schedule: Q01DX009 (ip), vehicle: Klucel (hydroxypropylcellulose) (HPC)) was 121 % of control. For the same molecule, the T/C (dose: 6.25 mg/kg/injection, schedule: Q01DX009 (ip), vehicle: Klucel (hydroxypropylcellulose) (HPC)) was 121 % of control, the T/C (dose: 12.5 mg/kg/injection, schedule: Q01DX009 (ip), vehicle: Klucel (hydroxypropylcellulose) (HPC)) was 93 % of control and the T/C (dose: 25.0 mg/kg/injection, schedule: Q01DX009 (ip), vehicle: Klucel (hydroxypropylcellulose) (HPC)) was 100 % of control.

For `O=C(O)CC1Sc2nc3c(n2C1(O)c1ccccc1)CCCC3` (centres undefined), the T/C [1] was 109 % of control, the T/C [2] was 100 % of control and the T/C [3] was 98 % of control.

For `Cc1c2ccncc2c(CN(CCO)CCO)c2c3ccccc3n(C)c12`, the T/C (dose: 5.0 mg/kg/injection, schedule: Q01DX005 (ip), vehicle: saline) was 103 % of control, the T/C (dose: 10.0 mg/kg/injection, schedule: Q01DX005 (ip), vehicle: saline) was 100 % of control and the T/C (dose: 20.0 mg/kg/injection, schedule: Q01DX005 (ip), vehicle: saline) was 90 % of control.

`Oc1ccc(C2C=CCC2)cc1C1C=CCC1` (centres undefined) was tested, and the T/C [2] was 106 % of control, the T/C [3] was 116 % of control and the T/C (dose: 400.0 mg/kg/injection, schedule: Q01DX009 (ip), vehicle: Klucel (hydroxypropylcellulose) (HPC)) was 115 % of control.

With `C[Si](C)(C)CC[Si]12OCCN(C3CCCCC3O1)C1CCCCC1O2` (centres undefined) the T/C [4] was 94 % of control, the T/C [5] was 104 % of control and the T/C [6] was 105 % of control.

For `COC(=O)C1=C(N)SS/C1=C/[N+](=O)[O-]`, the T/C [4] was 106 % of control, the T/C [5] was 103 % of control and the T/C [6] was 101 % of control.

`Cc1ccc2c(c1)C1(C)OC(C=CC1(C)O)O2` (centres undefined) was tested, and the T/C [7] was 101 % of control, the T/C [8] was 106 % of control and the T/C [9] was 106 % of control.

In the case of `O/N=C/C(=Nc1ccc2ccccc2c1)NO`, the T/C (dose: 60.0 mg/kg/injection, schedule: Q01DX005 (ip), vehicle: Klucel (hydroxypropylcellulose) (HPC)) is reported as 102 % of control, the T/C (dose: 120.0 mg/kg/injection, schedule: Q01DX005 (ip), vehicle: Klucel (hydroxypropylcellulose) (HPC)) is reported as 98 % of control and the T/C (dose: 240.0 mg/kg/injection, schedule: Q01DX005 (ip), vehicle: Klucel (hydroxypropylcellulose) (HPC)) is reported as 98 % of control.

In the case of `O=C1CN(N2CCOCC2)CC(=O)N2CCCCN12`, the T/C [10] is reported as 100 % of control, the T/C [11] is reported as 109 % of control and the T/C [12] is reported as 109 % of control.

In the case of `CO[C@H]1C[C@H]2CC[C@@]1(C)C2(C)C`, the T/C (dose: 60.0 mg/kg/injection, schedule: Q01DX005 (ip), vehicle: saline) is reported as 104 % of control, the T/C (dose: 120.0 mg/kg/injection, schedule: Q01DX005 (ip), vehicle: saline) is reported as 104 % of control and the T/C (dose: 240.0 mg/kg/injection, schedule: Q01DX005 (ip), vehicle: saline) is reported as 100 % of control.

In the case of `CCCCOC(=O)C(C)OC(=O)Nc1cccc(Cl)c1` (centres undefined), the T/C [13] is reported as 90 % of control, the T/C [14] is reported as 90 % of control and the T/C [15] is reported as 100 % of control.

In the case of `Cc1c2cnccc2c(C)c2c1[nH]c1ccccc12`, the T/C (dose: 25.0 mg/kg/injection, schedule: Q04DX002 (ip), vehicle: Klucel (hydroxypropylcellulose) (HPC)) is reported as 98 % of control, the T/C (dose: 50.0 mg/kg/injection, schedule: Q04DX002 (ip), vehicle: Klucel (hydroxypropylcellulose) (HPC)) is reported as 103 % of control and the T/C (dose: 100.0 mg/kg/injection, schedule: Q04DX002 (ip), vehicle: Klucel (hydroxypropylcellulose) (HPC)) is reported as 105 % of control. For the same molecule, the T/C (dose: 180.0 mg/kg/injection, schedule: Q04DX002 (ip), vehicle: Klucel (hydroxypropylcellulose) (HPC)) was 94 % of control, the T/C (dose: 200.0 mg/kg/injection, schedule: Q04DX002 (ip), vehicle: Klucel (hydroxypropylcellulose) (HPC)) was 111 % of control and the T/C (dose: 360.0 mg/kg/injection, schedule: Q04DX002 (ip), vehicle: Klucel (hydroxypropylcellulose) (HPC)) was 108 % of control.

With `O=S=NSc1c(F)c(F)c(F)c(F)c1F` the T/C [7] was 104 % of control and the T/C [8] was 111 % of control.

`O=C(Nc1cccc([N+](=O)[O-])c1)OCc1ccc2c(c1)OCO2` was tested, and the T/C (dose: 60.0 mg/kg/injection, schedule: Q01DX005 (ip), vehicle: saline with Tween-80) was 91 % of control and the T/C (dose: 120.0 mg/kg/injection, schedule: Q01DX005 (ip), vehicle: saline with Tween-80) was 90 % of control.

For `CCN(CC)CC(C)Nc1ccc(C)c2sc3ccccc3c(=O)c12` (centres undefined), the T/C (dose: 75.0 mg/kg/injection, schedule: Q01DX009 (ip), vehicle: saline) was 175 % of control and the T/C (dose: 300.0 mg/kg/injection, schedule: Q01DX009 (ip), vehicle: saline) was 100 % of control.

With `CCCCCCCn1cnc2cc(N3CCOCC3)c([N+](=O)[O-])cc2c1=O` the T/C (dose: 100.0 mg/kg/injection, schedule: Q04DX003 (ip), vehicle: Klucel (hydroxypropylcellulose) (HPC)) was 102 % of control, the T/C (dose: 200.0 mg/kg/injection, schedule: Q04DX003 (ip), vehicle: Klucel (hydroxypropylcellulose) (HPC)) was 95 % of control and the T/C (dose: 400.0 mg/kg/injection, schedule: Q04DX003 (ip), vehicle: Klucel (hydroxypropylcellulose) (HPC)) was 100 % of control.

With `CN(C(N)=O)C1CCCC1` the T/C [13] was 100 % of control, the T/C [14] was 109 % of control and the T/C [15] was 113 % of control.

`CC[CH2][Sn]([Cl])([Cl])[CH2]CC.Oc1ccccc1C=NCCN=Cc1ccccc1O` was tested, and the T/C (dose: 0.6 mg/kg/injection, schedule: Q01DX009 (ip), vehicle: gum acacia) was 111 % of control and the T/C (dose: 5.0 mg/kg/injection, schedule: Q01DX009 (ip), vehicle: gum acacia) was 159 % of control.

For `COc1ccc2c(=O)c(-c3cc4c(cc3OC)OCO4)coc2c1`, the T/C (dose: 8.0 mg/kg/injection, schedule: Q01DX005 (ip), vehicle: Klucel (hydroxypropylcellulose) (HPC)) was 88 % of control and the T/C (dose: 16.0 mg/kg/injection, schedule: Q01DX005 (ip), vehicle: Klucel (hydroxypropylcellulose) (HPC)) was 86 % of control.

`Cc1ccc(Nc2cc(C(=O)O)c(Nc3ccc(C)cc3)cc2C(=O)O)cc1` was tested, and the T/C [1] was 102 % of control, the T/C [2] was 111 % of control and the T/C [3] was 102 % of control.

In the case of `C1CCN(CCC[Si]23OCCN(CCO2)CCO3)CC1`, the T/C [7] is reported as 102 % of control, the T/C [8] is reported as 108 % of control and the T/C [9] is reported as 106 % of control.

In the case of `COc1cc2c[n+]3ccccc3c(N)c2cc1OC`, the T/C (dose: 50.0 mg/kg/injection, schedule: Q04DX003 (ip), vehicle: distilled water + Tween-80) is reported as 110 % of control, the T/C (dose: 100.0 mg/kg/injection, schedule: Q04DX003 (ip), vehicle: distilled water + Tween-80) is reported as 106 % of control and the T/C (dose: 200.0 mg/kg/injection, schedule: Q04DX003 (ip), vehicle: distilled water + Tween-80) is reported as 97 % of control.

In the case of `NC(=S)N/N=C/c1nc2ccccc2[nH]1`, the T/C (dose: 25.0 mg/kg/injection, schedule: Q04DX003 (ip), vehicle: saline with Tween-80) is reported as 100 % of control, the T/C (dose: 50.0 mg/kg/injection, schedule: Q04DX003 (ip), vehicle: saline with Tween-80) is reported as 100 % of control and the T/C [13] is reported as 106 % of control. For the same molecule, the T/C [14] was 91 % of control.

For `COC1=CC(=O)C(Cc2ccc3c(c2)OCO3)=CC1=O`, the T/C (dose: 2.5 mg/kg/injection, schedule: Q01DX009 (ip), vehicle: saline with Tween-80) was 101 % of control, the T/C (dose: 5.0 mg/kg/injection, schedule: Q01DX009 (ip), vehicle: saline with Tween-80) was 99 % of control and the T/C (dose: 10.0 mg/kg/injection, schedule: Q01DX009 (ip), vehicle: saline with Tween-80) was 101 % of control.

For `OC(CO/N=C1\CCc2ccccc21)CN1CCOCC1` (centres undefined), the T/C [10] was 105 % of control, the T/C [11] was 104 % of control and the T/C [12] was 104 % of control.

For `CC1(C)CN(C(C)(C)C)CC(C)(C)C(O)C1=O` (centres undefined), the T/C (dose: 100.0 mg/kg/injection, schedule: Q01DX001 (ip), vehicle: saline with Tween-80) was 100 % of control, the T/C (dose: 200.0 mg/kg/injection, schedule: Q01DX001 (ip), vehicle: saline with Tween-80) was 118 % of control and the T/C (dose: 400.0 mg/kg/injection, schedule: Q01DX001 (ip), vehicle: saline with Tween-80) was 104 % of control.
